According to publication PMC6225228, “Design, Synthesis and Evaluation of N-pyrazinylbenzamides as Potential Antimycobacterial Agents” (Molecules : A Journal of Synthetic Chemistry and Natural …, 2018):
Converted amounts (≈) assume the structure as drawn. Read-outs that look alike come from different tables or passages of the source.

Key:
[1] = test system: Staphylococcus aureus H 5996/08 methicillin resistant; test: microbe, parasite or virus in culture; assay type: cell-based; conditions: for MIC: Staphylococcus aureus, MRSA, read-out: MIC MRSA
[2] = test system: Candida tropicalis 156; test: Antifungal microdilution broth, CT; assay type: cell-based; conditions: read-out: MIC CT
[3] = test system: Trichophyton interdigitale 445; test: Antifungal microdilution broth, TI; assay type: cell-based; conditions: read-out: MIC TI
[4] = test system: Lichtheimia corymbifera 272; test: Antifungal microdilution broth, LC; assay type: cell-based; conditions: read-out: MIC LC
[5] = test system: M. avium ssp. avium CNCTC My 80/72 (ATCC 15769); test: Antimycobacterial microdilution MABA, M. avium; assay type: cell-based, Mycobacterium avium; conditions: Mycobacterium avium, ATCC15769, pH 6.6, read-out: M. avium ATCC 15769 MIC
[6] = test system: Candida glabrata 20/I; test: Antifungal microdilution broth, CG; assay type: cell-based; conditions: Nakaseomyces glabratus, 20/I, read-out: MIC CG
[7] = test system: Enterococcus sp. J 14365/08; test: Antibacterial microdilution broth, EF; assay type: cell-based; conditions: Enterococcus, read-out: MIC EF
[8] = test system: Mycobacterium smegmatis CCM 4622 (ATCC 607); test: Antimycobacterial microdilution, M. smegmatis; assay type: cell-based; conditions: Mycolicibacterium smegmatis, read-out: M. smeg. ATCC 607 MIC
[9] = test system: Pseudomonas aeruginosa CCM 1961; test: Antibacterial microdilution broth, PA; assay type: cell-based; conditions: Pseudomonas aeruginosa, read-out: MIC PA
[10] = test system: Escherichia coli CCM 4517; test: Antibacterial microdilution broth, EC; assay type: cell-based; conditions: Escherichia coli, read-out: MIC EC
[11] = test system: eight fungal strains of clinical importance; test: Antifungal microdilution, all tested fungal strains; assay type: cell-based; conditions: Trichophyton interdigitale, read-out: MIC, all tested fungal strains
[12] = test system: Staphylococcus epidermidis H 6966/08; test: Antibacterial microdilution broth, SE; assay type: cell-based; conditions: read-out: MIC SE
[13] = test system: Candida albicans ATCC 44859; test: Antifungal microdilution broth, CA; assay type: cell-based; conditions: Candida albicans, read-out: MIC CA
[14] = test system: M. kansasii CNCTC My 235/80 (ATCC 12478); test: Antimycobacterial microdilution MABA, M. kansasii; assay type: cell-based, Mycobacterium kansasii; conditions: Mycobacterium kansasii, ATCC12478, pH 6.6, read-out: M. kans. ATCC 12478 MIC, Middlebrook 7H9 with OADC, pH 6.6, MABA
[15] = test system: Candida krusei E28; test: Antifungal microdilution broth, CK; assay type: cell-based; conditions: Pichia kudriavzevii, read-out: MIC CK
[16] = test system: Aspergillus fumigatus 231; test: Antifungal microdilution broth, AF; assay type: cell-based; conditions: read-out: MIC AF
[17] = test system: Trichosporon asahii 1188; test: Antifungal microdilution broth, TA; assay type: cell-based; conditions: read-out: MIC TA
[18] = test system: Staphylococcus aureus CCM 4516/08; test: Antibacterial microdilution broth, SA; assay type: cell-based; conditions: Staphylococcus aureus
[19] = test system: Mycobacterium tuberculosis H37Rv CNCTC My 331/88 (ATCC 27294); test: Antimycobacterial microdilution MABA, M. tuberculosis; assay type: cell-based; conditions: for MIC: Mycobacterium tuberculosis
[20] = human, HepG2 cells
[21] = Trichophyton interdigitale, 445, 72 h
[22] = Trichophyton interdigitale, 445, 120 h
[23] = Lichtheimia corymbifera, 272, 24 h
[24] = Lichtheimia corymbifera, 272, 48 h
[25] = Staphylococcus epidermidis, H6966/08, 24 h
[26] = Staphylococcus epidermidis, H6966/08, 48 h
[27] = Aspergillus fumigatus, 231, 24 h
[28] = Aspergillus fumigatus, 231, 48 h
[29] = Trichosporon asahii, 1188, 24 h
[30] = Trichosporon asahii, 1188, 48 h
[31] = CCM4516, 24 h, read-out: MIC SA, 24 h
[32] = CCM4516, 48 h, read-out: MIC SA, 48 h
[33] = read-out: Mtb H37Rv ATCC 27294 MIC, Middlebrook 7H9 with OADC growth supplement, pH = 6.6, MABA

For `O=C(Nc1cnc(Cl)cn1)c1cccc(O)c1` [Compound 2c], the “MIC MRSA” value ([1]; 24 h) was over 500 µM, the “MIC MRSA” value ([1]; 48 h) was over 500 µM and the MIC ([1]; 24 h) was over 500 µM. The MIC ([1]; 48 h) was over 500 µM, the MIC ([2]; Candida tropicalis, 156, 24 h) was over 500 µM and the MIC ([2]; Candida tropicalis, 156, 48 h) was over 500 µM. For the same compound, the MIC [3, 21] was over 500 µM, the MIC [3, 22] was over 500 µM and the melting point was 190.1 to 190.8 °C. It also gave an MIC [4, 23] of over 500 µM, an MIC [4, 24] of over 500 µM and an MIC [5] of over 100 µg/mL. For the same compound, the MIC ([6]; 24 h) was over 500 µM, the MIC ([6]; 48 h) was over 500 µM and the MIC ([7]; SP.J14365/08, 24 h) was over 500 µM. For the same compound, the MIC ([7]; SP.J14365/08, 48 h) was over 500 µM, the MIC [8] was at least 500 µg/mL and the MIC ([9]; CCM1961, 72 h) was over 500 µM. The MIC ([9]; CCM1961, 120 h) was over 500 µM, the MIC ([10]; CCM4517, 24 h) was over 500 µM and the MIC ([10]; CCM4517, 48 h) was over 500 µM. It also gave an MIC [11] of at least 500 µM, an MIC ([12]; 24 h) of over 500 µM and an MIC ([12]; 48 h) of over 500 µM. For the same compound, the MIC [12, 25] was over 500 µM, the MIC [12, 26] was over 500 µM and the MIC ([13]; ATCC44859, 24 h) was 500 µM (≈ 125 µg/mL). It also gave an MIC ([13]; ATCC44859, 48 h) of over 500 µM, an MIC [14] of over 100 µg/mL and an MIC ([15]; E28, 24 h) of over 500 µM. For the same compound, the MIC ([15]; E28, 48 h) was over 500 µM, the MIC [16, 27] was over 500 µM and the MIC [16, 28] was over 500 µM. The MIC [17, 29] was over 500 µM, the MIC [17, 30] was over 500 µM and the MIC [18, 31] was 500 µM (≈ 125 µg/mL). For the same compound, the MIC [18, 32] was 500 µM (≈ 125 µg/mL), the “Mtb H37Rv ATCC 27294 MIC” value ([19]; Middlebrook 7H9 with OADC growth supplement, pH = 6.6, MABA) was over 100 µg/mL and the MIC [19, 33] was over 100 µg/mL.

`CC(=O)Oc1ccccc1C(=O)Nc1cnc(Cl)cn1` [Compound 2b-Ac] showed an MIC ([1]; 24 h) of 125 µM (≈ 36.5 µg/mL), an MIC ([1]; 48 h) of 250 µM (≈ 72.9 µg/mL) and an MIC ([2]; Candida tropicalis, 156, 24 h) of 250 µM (≈ 72.9 µg/mL). It also gave an MIC ([2]; Candida tropicalis, 156, 48 h) of 250 µM (≈ 72.9 µg/mL), an MIC [3, 21] of 250 µM (≈ 72.9 µg/mL) and an MIC [3, 22] of 250 µM (≈ 72.9 µg/mL). For the same compound, the IC50 at 24 h [20] was 95.4 µM, the MIC [4, 23] was 125 µM (≈ 36.5 µg/mL) and the MIC [4, 24] was 125 µM (≈ 36.5 µg/mL). It also gave an MIC [5] of 50 µg/mL (≈ 171 µM), an MIC ([6]; 24 h) of 250 µM (≈ 72.9 µg/mL) and an MIC ([6]; 48 h) of 250 µM (≈ 72.9 µg/mL). The MIC ([7]; SP.J14365/08, 24 h) was 250 µM (≈ 72.9 µg/mL), the MIC ([7]; SP.J14365/08, 48 h) was over 250 µM and the MIC [8] was 31.2 µg/mL (≈ 107 µM). For the same compound, the MIC ([9]; CCM1961, 72 h) was over 250 µM, the MIC ([9]; CCM1961, 120 h) was over 250 µM and the MIC ([10]; CCM4517, 24 h) was over 250 µM. It also gave an MIC ([10]; CCM4517, 48 h) of over 250 µM, an MIC [11] of 125 to 250 µM (≈ 36.5 to 72.9 µg/mL) and an MIC [12, 25] of 125 µM (≈ 36.5 µg/mL). For the same compound, the MIC [12, 26] was 250 µM (≈ 72.9 µg/mL), the MIC ([13]; ATCC44859, 24 h) was 125 µM (≈ 36.5 µg/mL) and the MIC ([13]; ATCC44859, 48 h) was 125 µM (≈ 36.5 µg/mL). It also gave an MIC [14] of 12.5 µg/mL (≈ 42.9 µM), an MIC ([15]; E28, 24 h) of 125 µM (≈ 36.5 µg/mL) and an MIC ([15]; E28, 48 h) of 125 µM (≈ 36.5 µg/mL). For the same compound, the MIC [16, 27] was 250 µM (≈ 72.9 µg/mL), the MIC [16, 28] was 250 µM (≈ 72.9 µg/mL) and the MIC [17, 29] was 125 µM (≈ 36.5 µg/mL). For the same compound, the MIC [17, 30] was 125 µM (≈ 36.5 µg/mL), the MIC [18, 31] was 62.5 µM (≈ 18.2 µg/mL) and the MIC [18, 32] was 125 µM (≈ 36.5 µg/mL). For the same compound, the MIC [19, 33] was 12.5 µg/mL and the MIC ([19]; read-out: Mtb MIC, molar concentration) was 42.9 µM.
